Measurements: article PMC12365674, “Diverse metabolites with anti-psoriasis potential from different fermentations of the fungicolous fungus Xylarialongipes HFG1018” (IMA Fungus, 2025)
Entries after “also recorded” stand apart in the source; their conditions may differ. Read-outs that look alike come from different tables or passages of the source.

Assays:
HaCaT cells [1] = assay: Antiproliferative activity against HaCaT cells (CCK-8); type: cell-based; conditions: read-out: IC50 against the proliferation of HaCaT cells
Protocol: (§1) As previously described, the immunosuppressive activity, lymphocyte viability, and antiproliferative activity against HaCaT cells were evaluated using the CCK-8 method ([Zhao et al. 2023], [2024]).
(§2) In the immunosuppressive and lymphocyte viability, the primary tested concentration of all compounds was 20.0 μM, and dexamethasone (Dex) (c = 2.0 μM) was used as a positive control. In the antiproliferative activity against HaCaT cells, the primary tested concentration of all compounds was 40 μM, and the positive control was methotrexate (MTX) (c = 40.0 μM). When the inhibition rates are greater than 50%, the IC50 values of active compounds will be further tested and calculated. All experiments were performed in triplicate.

[2] = test system: ConA-induced T lymphocytes; assay: Anti-proliferative activity against ConA-induced T lymphocytes (CCK-8); type: cell-based; conditions: Mus musculus, T-lymphocyte; for inhibition at 20 µM: c = 20 μM; for IC50: induced proliferation of T lymphocytes (ConA), CCK-8, read-out: T cells IC50
Protocol: as §1, §2

[3] = test system: LPS-induced B lymphocytes; assay: Anti-proliferative activity against LPS-induced B lymphocytes (CCK-8); type: cell-based, mouse; conditions: Mus musculus, Lymphocyte; for inhibition at 20 µM: c = 20 μM; for IC50: induced proliferation of B lymphocytes (LPS), CCK-8, read-out: B cells IC50
Protocol: as §1, §2

lymphocytes [4] = assay: Lymphocyte viability (CCK-8); type: cell-based, mouse
Protocol: as §1, §2

[5] = test system: ConA-induced T lymphocytes; assay: Anti-proliferative activity against ConA-induced T lymphocytes (CCK-8); type: cell-based; conditions: Mus musculus, T-lymphocyte, c = 40 μM, read-out: Inhibition rate (%) T
[6] = test system: LPS-induced B lymphocytes; assay: Anti-proliferative activity against LPS-induced B lymphocytes (CCK-8); type: cell-based; conditions: Mus musculus, Lymphocyte, c = 40 μM, read-out: Inhibition rate (%) B
lymphocytes [7] = assay: Lymphocyte viability (CCK-8); type: cell-based, mouse; conditions: c = 40 μM
[8] = test system: induced T cells (Con A 5 μg/mL); assay: EdU proliferation assay, induced T cells; type: cell-based, mouse; conditions: c = 20 μM; relative to the model group
Protocol: (§3) EdU fluorescence labeling for cell proliferation of induced T/B lymphocytes (2 × 10^5 cells/well) and HaCaT cells (1 × 10^4 cells/well) of active compounds 10, 19, 23, 32, 38, and 41 (final concentration 10 or 20 μM) was performed as previously reported ([Biram and Shulman 2020]; [Zhao et al. 2024]). EdU (HF488) (the Click-iT™ EdU Flow Cytometry Assay Kit, APExBIO, USA) was added 24 h (final concentration 50 μM, T and B cells) and 4 h (final concentration 10 μM, HaCaT cells) before harvesting the cells. All procedures were performed according to the manufacturer’s instructions for the click reaction. EdU-positive cells and proliferating phase cells were analyzed with a fluorescence microscope.

[9] = test system: induced B cells (LPS 15 μg/mL); assay: EdU proliferation assay, induced B cells; type: cell-based, mouse; conditions: c = 20 μM; relative to the model group
Protocol: as §3

IFN-γ = assay: Cytokine analysis by ELISA of induced T cells: IFN-γ; type: cell-based, mouse; conditions: ConA-induced T cells, 48 h; all sample groups; P < 0.0001 vs. model
Protocol: (§4) The mononuclear cell suspensions (2 × 10^5 cells/well) were cultured with ConA (5 μg/mL) in 96-well plates, and indicated concentrations of compounds 2, 15, and 32 were added simultaneously. After a 48-hour culture period, cytokines in the supernatants were quantified using mouse IFN-γ, IL-2, and IL-17A ELISA kits (Mabtech, Sweden), following the manufacturer’s protocol ([Jing et al. 2021]; [Zhao et al. 2024]).

IL-17A = assay: Cytokine analysis by ELISA of induced T cells: IL-17A; type: cell-based, mouse; conditions: 40 μM; ConA-induced T cells, 48 h; P < 0.05 vs. model
Protocol: as §4

[10] = Lymphocyte viability (CCK-8); type: cell-based, mouse; conditions: mouse, lymphocytes; lymphocyte viability; CCK-8
Protocol: as §1, §2

HaCaT cells [11] = assay: EdU proliferation assay, HaCaT cells; type: cell-based; conditions: c = 20 μM; compared to the control group
Protocol: as §3

[12] = ConA-induced T lymphocytes, read-out: Inhibition rate (%) T
[13] = LPS-induced B lymphocytes, read-out: Inhibition rate (%) B

3-methoxy-2-phenethyl-1H-pyrrole-1-carbaldehyde [Compound 35]
IC50 (HaCaT cells [1]): 31.5 ± 2.4 µM

CC12CCOC(C1)C1=C(CCC3C(C)(C(=O)O)CCCC13C)C2 (stereo not drawn) [Compound 1, 11α,16-Epoxy-isopimar-8(9)-en-19β-oic acid]
inhibition at 20 µM [2, 12]: 11.4 ± 6.4% | inhibition at 20 µM [3, 13]: 18.9 ± 7.5% | Cell validity (%) (lymphocytes [4]; c = 20 μM): 86.3 ± 2.1% | inhibition at 40 µM [5]: 16.5 ± 1.5% | inhibition at 40 µM [6]: 20.4 ± 6.3% | Cell validity (%) (lymphocytes [7]): 90.7 ± 4.0%

C[C@]1(CCO[C@H]2O[C@H](CO)[C@@H](O)[C@H](O)[C@@H]2O)CCC2=C(CC[C@H]3[C@@](C)(C(=O)O)CCC[C@]23C)C1 [Compound 2, 16-α-D-Mannopyranosyloxyisopimar-8(9)-en-19-oic acid]
inhibition at 20 µM [2, 12]: 23.8 ± 0.9% | inhibition at 20 µM [3, 13]: 24.9 ± 8.6% | Cell validity (%) (lymphocytes [4]; c = 20 μM): 100.0 ± 2.4% | proliferation of induced T cells measured by EdU [8]: significantly suppressed the proliferation | proliferation of induced B cells measured by EdU [9]: significantly suppressed the proliferation | IFN-γ secretion (IFN-γ): significant reduction; also recorded: significantly reduced | IL-17A levels (IL-17A): markedly lowered | inhibition at 40 µM [5]: 32.8 ± 6.8% | inhibition at 40 µM [6]: 30.6 ± 6.2% | Cell validity (%) (lymphocytes [7]): 89.8 ± 7.9%

C[C@]1(CCO[C@H]2O[C@H](CO)[C@@H](O)[C@H](O)[C@H]2O)CCC2=C(CC[C@H]3[C@@](C)(C(=O)O)CCC[C@]23C)C1 [Compound 3, 16-α-D-Glucopyranosyloxyisopimar-8(9)-en-19-oic acid]
inhibition at 20 µM [2, 12]: 15.7 ± 7.9% | inhibition at 20 µM [3, 13]: 11 ± 4.9% | Cell validity (%) (lymphocytes [4]; c = 20 μM): 87.7 ± 7.4% | inhibition at 40 µM [5]: 26.5 ± 3.3% | inhibition at 40 µM [6]: 22.6 ± 9.6% | Cell validity (%) (lymphocytes [7]): 89.9 ± 4.4%

CCC1CCc2occc(=O)c2C1O (stereo not drawn) [Compound 9, 6-ethyl-5-hydroxy-5,6,7,8-tetrahydro-4H-chromen-4-one]
IC50 (HaCaT cells [1]; Homo sapiens, HaCaT): 35 ± 3.1 µM

CCc1ccc2occ(COC)c(=O)c2c1 [Compound 11, 6-ethyl-3-(methoxymethyl)-4H-chromen-4-one]
IC50 [2]: > 20 µM | IC50 [3]: 20 ± 1.5 µM | CC50 [10]: > 20 µM

CC[C@@]1(O)CCc2occ(COC)c(=O)c2[C@@H]1O [Compound 13, (5S,6R)-6-ethyl-5,6-dihydroxy-3-(methoxymethyl)-5,6,7,8-tetrahydro-4H-chromen-4-one]
IC50 (HaCaT cells [1]; Homo sapiens, HaCaT): 31.1 ± 2.6 µM

C[C@]1(CCO[C@H]2O[C@H](CO)[C@@H](O)[C@H](O)[C@@H]2O)CC[C@H]2C(=CC[C@@H]3[C@]2(C)CCC[C@]3(C)C(=O)O)C1 [Compound 16, 16-α-D-mannopyranosyloxyisopimar-7-en-19-oic acid]
inhibition at 20 µM [2, 12]: 13.1 ± 2.7% | inhibition at 20 µM [3, 13]: 19.3 ± 4.6% | Cell validity (%) (lymphocytes [4]; c = 20 μM): 101.8 ± 6.9% | inhibition at 40 µM [5]: 20.7 ± 4.3% | inhibition at 40 µM [6]: 20.5 ± 10.6% | Cell validity (%) (lymphocytes [7]): 96.2 ± 1.1%

C[C@]1(CCO[C@H]2O[C@H](CO)[C@@H](O)[C@H](O)[C@H]2O)CC[C@H]2C(=CC[C@@H]3[C@]2(C)CCC[C@]3(C)C(=O)O)C1 [Compound 17, 16-α-D-glucopyranosyloxyisopimar-7-en-19-oic acid]
inhibition at 20 µM [2, 12]: 10.1 ± 4.4% | inhibition at 20 µM [3, 13]: 11.5 ± 3.1% | Cell validity (%) (lymphocytes [4]; c = 20 μM): 94.0 ± 5.6% | inhibition at 40 µM [5]: 16.3 ± 4.3% | inhibition at 40 µM [6]: 20.7 ± 6.9% | Cell validity (%) (lymphocytes [7]): 100.0 ± 8.5%

COc1ccc2oc(C)cc(=O)c2c1O [Compound 19, 5-hydroxy-6-methoxy-2-methyl-4H-1-benzopyran-4-one]
IC50 (HaCaT cells [1]; Homo sapiens, HaCaT): 29.7 ± 3.3 µM | proliferation rates of HaCaT cells measured by EdU (HaCaT cells [11]): significantly reduced

COc1cccc2c1C(=O)O[C@@H](C)C2 [Compound 22, (S)-8-methoxy-3-methylisochroman-1-one]
IC50 (HaCaT cells [1]; Homo sapiens, HaCaT): 32.3 ± 1.5 µM

COc1ccc(O)c2c1C(=O)O[C@@H](C)C2 [Compound 24, (S)-5-hydroxy-8-methoxy-3-methylisochroman-1-one]
IC50 (HaCaT cells [1]; Homo sapiens, HaCaT): 32.5 ± 2 µM

COC(=O)c1ccc(O)c2c1C[C@@H](C)OC2=O [Compound 25, (R)-(−)-5-methoxycarbonylmellein]
IC50 (HaCaT cells [1]; Homo sapiens, HaCaT): 35.1 ± 1.9 µM

COC(=O)c1c[nH]c2ccccc12 [Compound 28, 1H-indole-3-carboxylic acid methyl ester]
IC50 (HaCaT cells [1]; Homo sapiens, HaCaT): 29.1 ± 1.7 µM

C[C@@H]1Cc2c(C(=O)O)ccc(O)c2C(=O)O1 [Compound 30, (R)-5-carboxymellein]
IC50 (HaCaT cells [1]; Homo sapiens, HaCaT): 31.2 ± 4.1 µM

CC(C)[C@@H](C)CC[C@@H](C)[C@H]1CC[C@H]2C3=C[C@@H](O)[C@@]4(O)C[C@@H](O)CC[C@]4(C)[C@H]3CC[C@]12C [Compound 33, (24S)-ergosta-7-ene-3β,5α,6β-triol]
IC50 (HaCaT cells [1]; Homo sapiens, HaCaT): 33.9 ± 2.8 µM

CC(C)[C@@H](C)/C=C/[C@@H](C)[C@H]1CC[C@H]2C3=CC(=O)[C@@]4(O)C[C@@H](O)CC[C@]4(C)[C@@]3(O)CC[C@]12C [Compound 34, 3β,5α,9α-trihydroxy-(22E,24R)-ergosta-7,22-dien-6-one]
IC50 (HaCaT cells [1]; Homo sapiens, HaCaT): 32.2 ± 3.4 µM

c1ccc2c3c([nH]c2c1)CNCC3 [Compound 36, tryptoline]
IC50 [2]: > 20 µM | IC50 [3]: 16.7 ± 1.8 µM | CC50 [10]: > 20 µM

CC(C)CC1NC(=O)C2CCCN2C1=O [Compound 37, cyclo-((S)-Pro-(R)-Leu))]
IC50 (HaCaT cells [1]; Homo sapiens, HaCaT): 32 ± 2.2 µM

CCCCCC=C(C(=O)O)C(C)C(=O)O (stereo not drawn) [Compound 40, 2-hexylidene-3-methylsuccinic acid]
IC50 (HaCaT cells [1]; Homo sapiens, HaCaT): 32.9 ± 3.4 µM

CC(C)C(C)C(OC1OC(CO)C(O)C(O)C1O)C(O)C(C)C1CCC2=C3C=CC4=CC(=O)CCC4(C)C3CCC21C [Compound 41, 22,23-dihydroxy-ergosta-4,6,8(14)-trien-3-one-23-β-D-glucopyranoside]
IC50 [2]: 12.1 ± 1.7 µM | IC50 [3]: 16.7 ± 1.9 µM | CC50 [10]: > 20 µM | IC50 (HaCaT cells [1]; Homo sapiens, HaCaT): 27.7 ± 2.5 µM | proliferation rates of HaCaT cells measured by EdU (HaCaT cells [11]): significantly reduced

C[C@@H]1C[C@H]2[C@@H]3CCC4=CC(=O)C=C[C@]4(C)[C@@]3(F)[C@@H](O)C[C@]2(C)[C@@]1(O)C(=O)CO [Dex, dexamethasone, reference compound]
inhibition at 2 µM ([2]; c = 2 μM, ConA-induced T lymphocytes, read-out: Inhibition rate (%) T): 45.2 ± 4.9% | IC50 [2]: 1.9 ± 0.1 µM | inhibition at 2 µM ([3]; c = 2 μM, LPS-induced B lymphocytes, read-out: Inhibition rate (%) B): 68.6 ± 1.5% | IC50 [3]: 1 ± 0.05 µM | CC50 [10]: 0.2 ± 0.04 µM | Cell validity (%) (lymphocytes [4]; c = 2 μM): 36.9 ± 2.2%

CN(Cc1cnc2nc(N)nc(N)c2n1)c1ccc(C(=O)N[C@@H](CCC(=O)O)C(=O)O)cc1 [MTX, methotrexate, reference compound]
IC50 (HaCaT cells [1]; Homo sapiens, HaCaT): 26.4 ± 1.4 µM
